Patent US11643437B2, “Tandem repeat cancer-targeting peptides for molecular conjugation or engineering and uses thereof in cancer theranostics” (Chang Gung Memorial Hospital, priority 2020, dated 2023)
Where no end group is shown, it is not given here.

Assays:
GRP78-PBD [1] = biological target: T1, GRP78-PBD (Homo sapiens, UniProt P11021); experiment: Surface plasmon resonance, GRP78-PBD binding to chip-bound C-terminal biotin-labeled CTPs/TR-CTPs; conditions: C-terminal GGGGSK extension, biotin on C-terminal lysine; for Kd: read-out: Dissociation constant KD
T1 sequence (P11021 421-639): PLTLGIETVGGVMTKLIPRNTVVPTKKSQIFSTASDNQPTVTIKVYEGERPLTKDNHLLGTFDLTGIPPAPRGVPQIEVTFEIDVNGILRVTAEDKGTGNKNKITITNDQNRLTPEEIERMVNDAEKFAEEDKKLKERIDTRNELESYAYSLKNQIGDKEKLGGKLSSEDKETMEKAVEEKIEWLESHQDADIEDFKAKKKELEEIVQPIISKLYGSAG
Experimental: (§1) Streptavidin was immobilized to a sensor chip (CMS; GE Healthcare) having a matrix of carboxymethylated dextran covalently attached to a gold surface using a standard amine-coupling method according to established procedures (GE Healthcare). The biotin-labeled TR-CTPs were immobilized on the chip by flowing them over the chip at a flow rate of 5 μl/min using HBS-P+ (GE Healthcare) as the running buffer.
(§2) Sensor chips were regenerated by washing the chip surface for 30 s with glycine buffer (10 mM; pH 11.5). Chips were reused after two chip regeneration cycles followed by a 120 s wash with running buffer.
The P13-series peptides described above in Example 1 were also biotin labeled after extending them at their C-termini with the sequence GGGGSK (SEQ ID NO: 10). Biotin was conjugated to the C-terminal lysine residue using standard techniques. Binding affinities of GRP78-PBD for the sensor chip-bound peptides were determined as described above in Example 2.

[2] = biological target: peptide-binding domain of GRP78 (GRP78-PBD, amino acids 421-639) (Homo sapiens, UniProt P11021); experiment: Surface plasmon resonance, GRP78-PBD binding to chip-bound N-terminal biotin-labeled CTPs/TR-CTPs; conditions: N-terminal GGGGS extension, peptide immobilized on streptavidin chip; for Kd: read-out: Dissociation constant KD
Chain of peptide-binding domain of GRP78 (GRP78-PBD, amino acids 421-639) (P11021 421-639): as above
From the text: Biotin-labeled TR-CTPs and CTPs were synthesized (Biotools Co., Ltd, Taiwan) to evaluate kinetics of binding to GRP78 by surface plasmon resonance. TR-CTPs and CTPs were extended by five amino acids (GGGGS; SEQ ID NO: 9) at their N-termini. The N-termini were labeled with a single biotin molecule per TR-CTP/CTP through an aminohexanoic acid linkage.
Also biotin labeled were two negative control peptides, in which the L-Leu residues within the sequences of F4P6-TR-CTP and F4P13-TR-CTP were replaced with D-Leu residues (dF4P6 and dF4P13, respectively).
as §1, §2

GRP78-PBD [3] = biological target: T1, GRP78-PBD; experiment: Surface plasmon resonance, GRP78-PBD binding to F4P6-BsAb amine-coupled to sensor chip; conditions: F4P6-BsAb directly coupled to sensor chip by amine-coupling
Experimental: as §1, §2
Following expression and purification of F4P6-BsAb, the kinetics of GRP78-PDB binding to it was evaluated by surface plasmon resonance as described in Example 1 above, differing in that the F4P6-BsAb was directly coupled to the CMS sensor chip by amine-coupling.

[4] = system: N87 gastric cancer target cells; experiment: PBMC-mediated cell killing, xCELLigence RTCA, N87; format: cell-based; conditions: 12.5 nM antibody, effector-to-target ratio 10:1, 90 h incubation
Experimental: (§3) The ability of bispecific antibody-like construct F4P6-BsAb to induce cell killing by peripheral blood mononuclear cells (PBMC) was tested on TOV21G ovarian cancer target cells and N87 gastric cancer target cells.
(§4) Target cells were seeded at 2×10^4 cells per well of a 96-well electronic microtiter plate (“E-plate”; ACEA Biosciences, Inc.) and allowed to adhere for 2 h. PBMC effector cells, PBMC effector cells plus F4P6-BsAb, and PBMC effector cells plus Ctrl-BsAb that lacks the […] sequence were added to reach a final effector-to-target ratio of 10:1. The concentration of F4P6-BsAb and Ctrl-BsAb was 12.5 nM. Data was gathered and quantified using an xCELLigence Real-Time Cell Analysis system (“RTCA”; ACEA Biosciences, Inc.) as directed by the manufacturer.

[5] = system: TOV21G ovarian cancer target cells; experiment: PBMC-mediated cell killing, xCELLigence RTCA, TOV21G; format: cell-based; conditions: 12.5 nM antibody, effector-to-target ratio 10:1, 40 h incubation
Experimental: as §3, §4

Molecule | Association rate Kon (GRP78-PBD [1]) | Dissociation rate Koff (GRP78-PBD [1]) | Kd (GRP78-PBD [1]) [nM] | Association rate Kon [2] | Dissociation rate Koff [2] | Kd [2] [nM] | Kd (GRP78-PBD [3]) [nM] | Koff value (GRP78-PBD [3]) | PBMC mediated lysis of N87 cells [4] [%] | PBMC mediated lysis of TOV21G cells [5] [%]
RLLDTNRPFLFY [P13-CTP, reference compound] | 9.7 × 10^2 M^−1S^−1 | 2.0 × 10^−3 S^−1 | 2700 | 1.2 × 10^3 M^−1S^−1 | 3.4×10^−3 S^−1 |  |  |  |  | 
RLLDTNRPFLPY [P6-CTP, reference compound] |  |  |  | 1.5 × 10^3 M^−1S^−1 | 3.0×10^−3 S^−1 | 1900 |  |  |  | 
RPFLFPFLFY [F4P13-TR-CTP] | 1.8 × 10^3 M^−1S^−1 | 1.2 × 10^−3 S^−1 | 660 | 7.9 × 10^2 M^−1S^−1 | 1.7×10^−3 S^−1 | 2100 |  |  |  | 
RPFLFPFLFYRPFLFPFLFY [F5P13-TR-CTP] |  |  |  | 1.9 × 10^3 M^−1S^−1 | 1.2×10^−3 S^−1 | 610 |  |  |  | 
RPFLPFLPY [F4P6-TR-CTP] |  |  |  | 2.3 × 10^3 M^−1S^−1 | 2.8×10^−3 S^−1 | 1200 |  |  |  | 
RPFLPFLPYRPFLPFLPY [F5P6-TR-CTP] |  |  |  | 8.9 × 10^2 M^−1S^−1 | 9.1×10^−4 S^−1 | 1000 |  |  |  | 
F4P6-BsAb: bispecific antibody-like knob-and-hole heterodimer, anti-CD3 scFv plus F4P6-TR-CTP on both Fc C-termini, SEQ ID NO 12 and 14 (protein) chain 1: MGGRRVRWEVYISRAGYVNRQIAWRRHHRSATMGWSLILLFLVAVATRVLSQVQLVQSGAEVKKPGASVKVSCKASGYTFTRYTMHWVRQAPGQGLEWIGYINPSRGYTNYNQKFKDKATLTTDKSISTAYMELSRLRSDDTAVYYCARYYDDHYTLDYWGQGTLVTVSSGGGGSGGGGSGGGGSEIVLTQSPATLSLSPGERATLSCSASSSVSYMNWYQQKPGQAPRRWIYDTSKLASGIPARFSGSGSGTSYTLTISSLEPEDFAVYYCQQWSSNPFTFGQGTKVEIKRSGGGGSGGGGSGGGGSTGTHTCPPCPAPELAGAPSVFLFPPKPKDTLMISRTPEVTCVVVDVSHEDPEVKFNWYVDGVEVHNAKTKPREEQYNSTYRVVSVLTVLHQDWLNGKEYKCKVSNKALPAPIEKTISKAKGQPREPQVCTLPPSREEMTKNQVSLSCAVKGFYPSDIAVEWESNGQPENNYKTTPPVLDSDGSFFLVSKLTVDKSRWQQGNVFSCSVMHEALHNHYTQKSLSLSPGKGGGGSGGGGSGGGGSRPFLPFLPY chain 2: MGGRRVRWEVYISRAGYVNRQIAWRRHHRSATMGWSLILLFLVAVATRVLSTGTHTCPPCPAPELAGAPSVFLFPPKPKDTLMISRTPEVTCVVVDVSHEDPEVKFNWYVDGVEVHNAKTKPREEQYNSTYRVVSVLTVLHQDWLNGKEYKCKVSNKALPAPIEKTISKAKGQPREPQVYTLPPCREEMTKNQVSLWCLVKGFYPSDIAVEWESNGQPENNYKTTPPVLDSDGSFFLYSKLTVDKSRWQQGNVFSCSVMHEALHNHYTQKSLSLSPGKGGGGSGGGGSGGGGSRPFLPFLPY |  |  |  |  |  |  | 1100 | 9.4×10^−4 S^−1 | 15 | 22
